Measured values reported in ChEMBL document CHEMBL2311520, “Total synthesis of AMF-26, an antitumor agent for inhibition of the Golgi system, targeting ADP-ribosylation factor 1” (J Med Chem, 2013).
Blank lines part the entries; values can stand above or below the compound they belong to. Calls of active or inactive are those of the source. The calls are words filed in the database; no cut-off is given here.

Experiments:
[1] = tested on: PC-3; experiment: Growth inhibition of human PC3 cells after 48 hrs by Sulforhodamine B assay; type: functional; details: PC-3, 48 h, read-out: logGI50 (converted)
[2] = tested on: DU-145; experiment: Growth inhibition of human DU145 cells after 48 hrs by Sulforhodamine B assay; type: functional; details: DU-145, 48 h, read-out: logGI50 (converted)
[3] = tested on: MKN-74; experiment: Growth inhibition of human MKN74 cells after 48 hrs by Sulforhodamine B assay; type: functional; details: MKN-74, 48 h, read-out: logGI50 (converted)
[4] = tested on: MKN-7; experiment: Growth inhibition of human MKN7 cells after 48 hrs by Sulforhodamine B assay; type: functional; details: MKN-7, 48 h, read-out: logGI50 (converted)
[5] = tested on: MKN-28; experiment: Growth inhibition of human MKN28 cells after 48 hrs by Sulforhodamine B assay; type: functional; details: MKN-28, 48 h, read-out: logGI50 (converted)
[6] = tested on: St-4; experiment: Growth inhibition of human St-4 cells after 48 hrs by Sulforhodamine B assay; type: functional; details: St-4, 48 h, read-out: logGI50 (converted)
[7] = Growth inhibition of human RXF631L cells after 48 hrs by Sulforhodamine B assay; type: functional; details: RXF 631, 48 h, read-out: logGI50 (converted)
[8] = tested on: ACHN; experiment: Growth inhibition of human ACHN cells after 48 hrs by Sulforhodamine B assay; type: functional; details: read-out: logGI50 (converted)
[9] = tested on: SK-OV-3; experiment: Growth inhibition of human SKOV3 cells after 48 hrs by Sulforhodamine B assay; type: functional; details: SK-OV-3, 48 h, read-out: logGI50 (converted)
[10] = tested on: OVCAR-3; experiment: Growth inhibition of human OVCAR3 cells after 48 hrs by Sulforhodamine B assay; type: functional; details: OVCAR-3, 48 h, read-out: logGI50 (converted)
[11] = tested on: OVCAR-5; experiment: Growth inhibition of human OVCAR5 cells after 48 hrs by Sulforhodamine B assay; type: functional; details: OVCAR-5, 48 h, read-out: logGI50 (converted)
[12] = tested on: LOX IMVI; experiment: Growth inhibition of human LOXIMVI cells after 48 hrs by Sulforhodamine B assay; type: functional; details: read-out: logGI50 (converted)
[13] = tested on: DMS-114; experiment: Growth inhibition of human DMS114 cells after 48 hrs by Sulforhodamine B assay; type: functional; details: DMS-114, 48 h, read-out: logGI50 (converted)
[14] = tested on: A549; experiment: Growth inhibition of human A549 cells after 48 hrs by Sulforhodamine B assay; type: functional; details: A549, 48 h, read-out: logGI50 (converted)
[15] = tested on: DMS-273; experiment: Growth inhibition of human DMS273 cells after 48 hrs by Sulforhodamine B assay; type: functional; details: DMS-273, 48 h, read-out: logGI50 (converted)
[16] = tested on: NCI-H460; experiment: Growth inhibition of human NCI-H460 cells after 48 hrs by Sulforhodamine B assay; type: functional; details: NCI-H460, 48 h, read-out: logGI50 (converted)
[17] = tested on: NCI-H522; experiment: Growth inhibition of human NCI-H522 cells after 48 hrs by Sulforhodamine B assay; type: functional; details: NCI-H522, 48 h, read-out: logGI50 (converted)
[18] = tested on: NCI-H23; experiment: Growth inhibition of human NCI-H23 cells after 48 hrs by Sulforhodamine B assay; type: functional; details: NCI-H23, 48 h, read-out: logGI50 (converted)
[19] = tested on: HCT-116; experiment: Growth inhibition of human HCT116 cells after 48 hrs by Sulforhodamine B assay; type: functional; details: HCT-116, 48 h, read-out: logGI50 (converted)
[20] = tested on: HCT-15; experiment: Growth inhibition of human HCT15 cells after 48 hrs by Sulforhodamine B assay; type: functional; details: HCT-15, 48 h, read-out: logGI50 (converted)
[21] = tested on: SNB-78; experiment: Growth inhibition of human SNB-78 cells after 48 hrs by Sulforhodamine B assay; type: functional; details: SNB-78, 48 h, read-out: logGI50 (converted)
[22] = Growth inhibition of human HCC2998 cells after 48 hrs by Sulforhodamine B assay; type: functional; details: HCC 2998, 48 h, read-out: logGI50 (converted)
[23] = tested on: SF-539; experiment: Growth inhibition of human SF539 cells after 48 hrs by Sulforhodamine B assay; type: functional; details: SF-539, 48 h, read-out: logGI50 (converted)
[24] = tested on: SF-295; experiment: Growth inhibition of human SF295 cells after 48 hrs by Sulforhodamine B assay; type: functional; details: SF-295, 48 h, read-out: logGI50 (converted)
[25] = tested on: U-251; experiment: Growth inhibition of human U251 cells after 48 hrs by Sulforhodamine B assay; type: functional; details: U-251, 48 h, read-out: logGI50 (converted)
[26] = tested on: SF-268; experiment: Growth inhibition of human SF268 cells after 48 hrs by Sulforhodamine B assay; type: functional; details: SF-268, 48 h, read-out: logGI50 (converted)
[27] = tested on: MCF7; experiment: Growth inhibition of human MCF7 cells after 48 hrs by Sulforhodamine B assay; type: functional; details: MCF7, 48 h, read-out: logGI50 (converted)
[28] = Growth inhibition of human HBC5 cells after 48 hrs by Sulforhodamine B assay; type: functional; details: HBC5, 48 h, read-out: logGI50 (converted)
[29] = Growth inhibition of human HBC4 cells after 48 hrs by Sulforhodamine B assay; type: functional; details: read-out: logGI50 (converted)
[30] = tested on: MKN-45; experiment: Growth inhibition of human MKN45 cells after 48 hrs by Sulforhodamine B assay; type: functional; details: MKN-45, 48 h, read-out: logGI50 (converted)
[31] = Growth inhibition of human MKN1 cells after 48 hrs by Sulforhodamine B assay; type: functional; details: MKN-1, 48 h, read-out: logGI50 (converted)
[32] = tested on: OVCAR-4; experiment: Growth inhibition of human OVCAR4 cells after 48 hrs by Sulforhodamine B assay; type: functional; details: OVCAR-4, 48 h, read-out: logGI50 (converted)
[33] = tested on: OVCAR-8; experiment: Growth inhibition of human OVCAR8 cells after 48 hrs by Sulforhodamine B assay; type: functional; details: OVCAR-8, 48 h, read-out: logGI50 (converted)
[34] = tested on: NCI-H226; experiment: Growth inhibition of human NCI-H226 cells after 48 hrs by Sulforhodamine B assay; type: functional; details: NCI-H226, 48 h, read-out: logGI50 (converted)
[35] = tested on: KM12; experiment: Growth inhibition of human KM12 cells after 48 hrs by Sulforhodamine B assay; type: functional; details: KM12, 48 h, read-out: logGI50 (converted)
[36] = tested on: HT-29; experiment: Growth inhibition of human HT-29 cells after 48 hrs by Sulforhodamine B assay; type: functional; details: HT-29, 48 h, read-out: logGI50 (converted)
[37] = tested on: SNB-75; experiment: Growth inhibition of human SNB75 cells after 48 hrs by Sulforhodamine B assay; type: functional; details: SNB-75, 48 h, read-out: logGI50 (converted)
[38] = tested on: MDA-MB-231; experiment: Growth inhibition of human MDA-MB-231 cells after 48 hrs by Sulforhodamine B assay; type: functional; details: MDA-MB-231, 48 h, read-out: logGI50 (converted)
[39] = Growth inhibition of human BSY1 cells after 48 hrs by Sulforhodamine B assay; type: functional; details: BSY-1, 48 h, read-out: logGI50 (converted)
[40] = tested on: HBC4; experiment: Induction of golgi disassembly in human HBC4 cells assessed as presence of GBF1 in cytoplasm at 1 to 100 nM after 1 hr by immunofluorescence microscopy; type: functional, cell-based
[41] = tested on: BSY-1; experiment: Induction of golgi disassembly in human BSY1 cells assessed as presence of GBF1 in cytoplasm at 1 to 100 nM after 1 hr by immunofluorescence microscopy; type: functional, cell-based

GI50 [1]: 45.7 nM
GI50 [2]: 245 nM
GI50 [3]: 56.2 nM
GI50 [4]: 50.1 nM
GI50 [5]: 79.4 nM
GI50 [8]: 47.9 nM
GI50 [9]: 41.7 nM
GI50 [10]: 33.1 nM
GI50 [11]: 38.9 nM
GI50 [14]: 57.5 nM
GI50 [16]: 91.2 nM
GI50 [17]: 123 nM
GI50 [18]: 53.7 nM
GI50 [19]: 40.7 nM
GI50 [20]: 70.8 nM
GI50 [25]: 58.9 nM
GI50 [27]: 42.7 nM
GI50 [30]: 31.6 nM
GI50 [32]: 31.6 nM
GI50 [33]: 39.8 nM
GI50 [34]: 23.4 nM
GI50 [36]: 33.9 nM
GI50 [38]: 24 nM
Compound: C/C(=C\C=C\[C@@H]1[C@H]2[C@H](C)[C@@H](O)[C@H](C)C[C@@H]2C=C[C@@H]1C)C(=O)NCc1cccnc1 (stereo in doubt; form 1)
GI50 [6]: 195 nM
GI50 [7]: 53.7 nM
GI50 [12]: 22.9 nM
GI50 [13]: 39.8 nM
GI50 [15]: 53.7 nM
GI50 [21]: 51.3 nM
GI50 [22]: 39.8 nM
GI50 [23]: 52.5 nM
GI50 [24]: 58.9 nM
GI50 [26]: 44.7 nM
GI50 [28]: 34.7 nM
GI50 [29]: 41.7 nM
GI50 [31]: 30.2 nM
GI50 [35]: 35.5 nM
GI50 [37]: 23.4 nM
GI50 [39]: 12.6 nM

Compound: C/C(=C\C=C\[C@@H]1[C@H]2[C@H](C)[C@@H](O)[C@H](C)C[C@@H]2C=C[C@@H]1C)C(=O)NCc1cccnc1 (stereo in doubt; form 2)
Activity [40]: Active
Activity [41]: Active
